Patent US7666875B2, “Hydantoin compounds” (Eisai R&D Management Co., Ltd., priority 2005, dated 2010)

Molecular target: T1, human T-bet (Homo sapiens, UniProt Q9UL17)
T1 construct: expressed in transfected cells; host or cells: engineered HEK cells (HEKT-bet)
T1 sequence (Q9UL17 1-535): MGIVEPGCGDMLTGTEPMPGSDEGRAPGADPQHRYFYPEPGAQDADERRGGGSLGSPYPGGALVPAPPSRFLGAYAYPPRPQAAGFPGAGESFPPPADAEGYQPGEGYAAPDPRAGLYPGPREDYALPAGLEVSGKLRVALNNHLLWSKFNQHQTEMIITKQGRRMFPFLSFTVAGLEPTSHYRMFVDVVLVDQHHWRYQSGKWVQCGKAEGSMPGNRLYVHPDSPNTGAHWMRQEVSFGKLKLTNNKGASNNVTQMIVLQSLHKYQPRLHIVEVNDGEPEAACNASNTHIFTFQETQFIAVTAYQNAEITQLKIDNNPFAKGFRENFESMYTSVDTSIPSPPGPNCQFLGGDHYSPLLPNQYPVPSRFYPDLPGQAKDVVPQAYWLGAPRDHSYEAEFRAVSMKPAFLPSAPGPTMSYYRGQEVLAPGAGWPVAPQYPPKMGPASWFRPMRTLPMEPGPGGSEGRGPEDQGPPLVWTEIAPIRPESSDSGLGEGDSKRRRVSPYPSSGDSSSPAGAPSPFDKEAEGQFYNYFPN
Test: HEKT-bet-luc assay (T-bet dependent luciferase reporter in engineered HEK cells)
Type: cell-based
Settings: Table 4; HEKT-bet cells, compound 24 hours; IC50 normalized to reference ER-213038; read-out: IC50
Protocol: HEKT-bet-luc assay: This assay measures a T-bet dependent reporter (luciferase) activity in engineered HEK cells that express a human T-bet and a T-box responsive element driving luciferase reporter. HEKT-bet cells were plated at 2×10^4/well in 96-well plate and compound was added into cell culture for 24 hours. Luciferase activity was measured by adding 50 μl of Steady-Glo reagent (Promega) and samples were read in Victor V reader (PerkinElmer). The IC50 values were calculated utilizing a maximum value corresponding to the amount of luciferase in the absence of a test compound and a minimum value corresponding to a test compound value obtained at maximum inhibition.
Determination of Normalized HEKT-bet IC50 values: Compounds were assayed in microtiter plates. Each plate included a reference compound which was ER-213038. The un-normalized IC50 value for a particular compound was divided by the IC50 value determined for the reference compound in the same microtiter plate to provide a relative potency value. The relative potency value was then multiplied by the established potency of the reference compound to provide the normalized HEKT-bet IC50 value. […] The IC50 values provided herein were obtained using this normalization method.

| IC50 | Compound |
| --- | --- |
| 290 nM | COc1cccc(CN2C(=O)N(Cc3cccc(OC)c3)C3(CCN(Cc4cc(OC)cc(OC)c4)CC3)C2=O)c1 [Example 202] |
| 291 nM | COCCN1C(=O)N(Cc2cccc(OC)c2)C(=O)C12CCN(Cc1cccc(OC(F)(F)F)c1)CC2 [Example 203] |
| 298 nM | O=C1N(C/C=C/c2ccccc2)C(=O)C2(CCN(Cc3cccc4ccccc34)CC2)N1CCO [Example 204] |
| 298 nM | COCCN1C(=O)N(C/C=C/c2cccc(C)c2)C(=O)C12CCN(Cc1ccccc1)CC2 [Example 205] |
| 311 nM | COCN1C(=O)N(C/C=C/c2ccccc2)C(=O)C12CCN(Cc1cccc3ccccc13)CC2 [Example 206] |
| 317 nM | COCCCN1C(=O)N(Cc2cc(OC)cc(OC)c2)C(=O)C12CCN(Cc1cc(OC)cc(OC)c1)CC2 [Example 207] |
| 317 nM | COCCN1C(=O)N(CCCOc2ccccc2)C(=O)C12CCN(Cc1cccc(C)c1)CC2 [Example 208] |
| 325 nM | COCCN1C(=O)N(Cc2cccc(OC)c2)C(=O)C12CCN(Cc1cc(-c3ccccc3)ccc1OC)CC2 [Example 209] |
| 333 nM | COCCN1C(=O)N(Cc2cccc(OC)c2)C(=O)C12CCN(Cc1cccc3c1OCO3)CC2 [Example 210] |
| 334 nM | COc1cccc(CN2C(=O)N(CCn3cccc3)C3(CCN(Cc4cccc5ccccc45)CC3)C2=O)c1 [Example 211] |
| 336 nM | COCCN1C(=O)N(Cc2cccc(OC)c2)C(=O)C12CCN(Cc1ccc(C)c(C)c1)CC2 [Example 212] |
| 337 nM | COCCN1C(=O)N(Cc2cccc(OC)c2)C(=O)C12CCN(Cc1ccc3ccccc3c1)CC2 [Example 213] |
| 344 nM | CCN1C(=O)N(Cc2ccc3ccccc3c2)C(=O)C12CCN(Cc1cccc(OC)c1)CC2 [Example 214] |
| 348 nM | COCCN1C(=O)N(Cc2cc(OC)ccc2OC)C(=O)C12CCN(Cc1cc(OC)cc(OC)c1)CC2 [Example 215] |
| 349 nM | COc1cccc(CN2C(=O)N(CCCO)C3(CCN(Cc4cccc5ccccc45)CC3)C2=O)c1 [Example 216] |
| 350 nM | CCN1C(=O)N(CCCOc2ccccc2)C(=O)C12CCN(Cc1cc(OC)cc(OC)c1)CC2 [Example 217] |
| 351 nM | COCCN1C(=O)N(Cc2cccc(OC)c2)C(=O)C12CCN(Cc1cccc(-c3ccncc3)c1)CC2 [Example 218] |
| 362 nM | COCCN1C(=O)N(Cc2cccc(OC)c2)C(=O)C12CCN(Cc1ccc(OC)c(OC)c1C)CC2 [Example 219] |
| 362 nM | COCCN1C(=O)N(CCCOc2ccccc2)C(=O)C12CCN(Cc1cccc(OC)c1)CC2 [Example 220] |
| 365 nM | CCN1C(=O)N(CCCc2ccccc2)C(=O)C12CCN(Cc1cc(OC)cc(OC)c1)CC2 [Example 221] |
| 366 nM | COCCN1C(=O)N(CCCc2ccccc2OC)C(=O)C12CCN(Cc1ccccc1)CC2 [Example 222] |

| IC50 | Compound |
| --- | --- |
| 371 nM | O=C1N(C/C=C/c2ccccc2)C(=O)C2(CCN(Cc3cccc4ccccc34)CC2)N1Cc1ccncc1 [Example 223] |
| 371 nM | COCCN1C(=O)N(Cc2cccc(OC)c2)C(=O)C12CCN(Cc1cccc(-c3ccc(S(C)(=O)=O)cc3)c1)CC2 [Example 224] |
| 373 nM | COCCN1C(=O)N(Cc2cccc(OC)c2)C(=O)C12CCN(Cc1cccc(N3CCCCC3)c1)CC2 [Example 225] |
| 373 nM | COCCN1C(=O)N(C/C=C/c2ccccc2C)C(=O)C12CCN(Cc1ccccc1)CC2 [Example 226] |
| 373 nM | COCCN1C(=O)N(Cc2cccc(OC)c2)C(=O)C12CCN(Cc1cc3ccccc3nc1Cl)CC2 [Example 227] |
| 374 nM | COCCN1C(=O)N(Cc2cccc(OC)c2)C(=O)C12CCN(Cc1ccc(C)cc1C)CC2 [Example 228] |
| 377 nM | COc1cccc(CN2C(=O)N(Cc3cccc(-n4cccc4)c3)C3(CCN(Cc4cccc5ccccc45)CC3)C2=O)c1 [Example 229] |
| 379 nM | COCCN1C(=O)N(Cc2cccc(OC)c2)C(=O)C12CCN(Cc1cccc(N3CCOCC3)c1)CC2 [Example 230] |
| 385 nM | COc1cccc(CN2C(=O)N(Cc3ccc4c(c3)nnn4C)C3(CCN(Cc4cccc5ccccc45)CC3)C2=O)c1 [Example 231] |
| 385 nM | COCCN1C(=O)N(CCCOc2ccccc2)C(=O)C12CCN(Cc1ccc3ccccc3c1)CC2 [Example 232] |
| 386 nM | COCCN1C(=O)N(Cc2cccc(OC)c2)C(=O)C12CCN(Cc1cccc(C)c1)CC2 [Example 233] |
| 387 nM | COCCN1C(=O)N(Cc2cccc(OC)c2)C(=O)C12CCN(Cc1ccccc1)CC2 [Example 234] |
| 390 nM | COCCN1C(=O)N(Cc2cccc(OC)c2)C(=O)C12CCN(Cc1cccc(Cl)c1)CC2 [Example 235] |
| 395 nM | COCCN1C(=O)N(Cc2ccc(OC(F)(F)F)cc2)C(=O)C12CCN(Cc1ccccc1)CC2 [Example 236] |
| 414 nM | COCCN1C(=O)N(Cc2cc(OC)cc(OC)c2)C(=O)C12CCN(Cc1cccc(OC)c1)CC2 [Example 237] |
| 414 nM | COCCN1C(=O)N(Cc2cccc(OC)c2)C(=O)C12CCN(Cc1cccc(-c3ccc(NC(C)=O)cc3)c1)CC2 [Example 238] |
| 417 nM | COCCN1C(=O)N(Cc2cccc(OC)c2)C(=O)C12CCN(Cc1cccc(OC)c1)CC2 [Example 239] |
| 420 nM | O=C1N(C/C=C/c2ccccc2)C(=O)C2(CCN(Cc3cccc4ccccc34)CC2)N1Cc1ccccn1 [Example 240] |
| 424 nM | COc1cccc(CN2C(=O)N(Cc3ccccn3)C3(CCN(Cc4cccc5ccccc45)CC3)C2=O)c1 [Example 241] |
| 424 nM | COCCN1C(=O)N(Cc2cccc(OC)c2)C(=O)C12CCN(Cc1cccc3cccnc13)CC2 [Example 242] |
| 431 nM | COCCN1C(=O)N(Cc2cccc(-c3ccccc3)c2)C(=O)C12CCN(Cc1ccccc1)CC2 [Example 243] |

| IC50 | Compound |
| --- | --- |
| 432 nM | COCCN1C(=O)N(Cc2cccc(OC)c2)C(=O)C12CCN(Cc1cc(OC)c3c(c1)OCO3)CC2 [Example 244] |
| 432 nM | COCCN1C(=O)N(Cc2cccc(OC)c2)C(=O)C12CCN(Cc1nn(-c3ccccc3)nc1C)CC2 [Example 245] |
| 435 nM | COCCN1C(=O)N(CCCC2CCCCC2)C(=O)C12CCN(Cc1ccccc1)CC2 [Example 246] |
| 436 nM | O=C1N(C/C=C/c2ccccc2)C(=O)C2(CCN(Cc3cccc4ccccc34)CC2)N1Cc1cccc2cccnc12 [Example 247] |
| 438 nM | COCCN1C(=O)N(CCCc2ccccc2)C(=O)C12CCN(Cc1cccc(C)c1)CC2 [Example 248] |
| 441 nM | COCCCN1C(=O)N(Cc2cccc(OC)c2)C(=O)C12CCN(Cc1cc(OC)cc(OC)c1)CC2 [Example 249] |
| 442 nM | COCCN1C(=O)N(Cc2ccc3ccccc3c2)C(=O)C12CCN(Cc1ccc3ccccc3c1)CC2 [Example 250] |
| 447 nM | O=C1N(C/C=C/c2ccccc2)C(=O)C2(CCN(Cc3cccc4ccccc34)CC2)N1CCn1cccc1 [Example 251] |
| 448 nM | CCN1C(=O)N(CCCc2ccccc2)C(=O)C12CCN(Cc1cccc(C)c1)CC2 [Example 252] |
| 450 nM | COCCN1C(=O)N(Cc2cc(F)cc(F)c2)C(=O)C12CCN(Cc1cc(OC)cc(OC)c1)CC2 [Example 253] |
| 451 nM | COCCN1C(=O)N(Cc2cccc(OC)c2)C(=O)C12CCN(Cc1cccc(-c3ccco3)c1)CC2 [Example 254] |
| 452 nM | COCCN1C(=O)N(Cc2cccc(OC)c2)C(=O)C12CCN(Cc1cc(OC)ccc1F)CC2 [Example 255] |
| 469 nM | COCCN1C(=O)N(Cc2cccc(-n3cccc3)c2)C(=O)C12CCN(Cc1ccccc1)CC2 [Example 256] |
| 479 nM | COCCN1C(=O)N(Cc2cccc(OC)c2)C(=O)C12CCN(Cc1ccc3c(c1)Cc1ccccc1-3)CC2 [Example 257] |
| 481 nM | COCCN1C(=O)N(Cc2cccc(OC)c2)C(=O)C12CCN(Cc1cccc(-c3ccoc3)c1)CC2 [Example 258] |
| 484 nM | COCCN1C(=O)N(Cc2cccc(OC)c2)C(=O)C12CCN(Cc1cccc(-c3cccc(OC)c3)c1)CC2 [Example 259] |
| 486 nM | CCN1C(=O)N(CCCOc2ccccc2)C(=O)C12CCN(Cc1cccc3ccccc13)CC2 [Example 260] |
| 490 nM | C#CCOc1ccc(CN2CCC3(CC2)C(=O)N(Cc2cccc(OC)c2)C(=O)N3CCOC)cc1OC [Example 261] |
| 495 nM | CCOc1ccccc1CN1CCC2(CC1)C(=O)N(Cc1cccc(OC)c1)C(=O)N2CCOC [Example 262] |
| 498 nM | COCCN1C(=O)N(Cc2ccc3ccccc3c2)C(=O)C12CCN(Cc1ccccc1)CC2 [Example 263] |
| 500 nM | C=Cc1cccc(CN2CCC3(CC2)C(=O)N(Cc2cccc(OC)c2)C(=O)N3CCOC)c1 [Example 264] |
